Assay results published in patent US20110262490A1, “POLYMER-AGENT CONJUGATES, PARTICLES, COMPOSITIONS, AND RELATED METHODS OF USE” (priority 2009, published 2011).

Columns and labels:
[1] = test system: B16.F10 tumor; experiment: In vivo efficacy in B16.F10 mouse model of melanoma (Example 39)
Protocol: The treatments were administered on days 5, 8, and 12 (biweekly×3 injections) post tumor implantation. Health status of the animals was monitored and tumor size was measured three times a week. […] Tumors from each animal were dissected and tumor size was measured. Tumor volume was calculated using the formula: (width×width×length)/2 mm^3.

[2] = test system: B16.F10 cells; experiment: CellTiter-Glo Luminescent Cell Viability Assay (cytotoxicity); assay type: cell-based, mouse; settings: 24, 48 and 72 hours
Protocol: B16.F10 cells, grown to 85-90% confluency in 150 cm^2 flasks (passage <30), were resuspended in media (MEM-alpha, 10% HI-FBS, 1× antibiotic-antimycotic) and added to 96-well opaque-clear bottom plates at a concentration of 1500 cells/well in 200 μL/well. The cells were incubated at 37° C. with 5% CO2 for 24 hours. The following day, serial dilutions of 2× concentrated particles and 2× concentrated free drug were made in 12-well reservoirs with media to specified concentrations. The media in the plates was replaced with 100 μL of fresh media and 100 μL of the corresponding serially diluted drug. Three sets of plates were prepared with duplicate treatments. Following 24, 48 and 72 hours of incubation at 37° C. with 5% CO2, the media in the plates was replaced with 100 μL of fresh media and 100 μL of CTG solution, and then incubated for 5 minutes on a plate shaker at room temperature set to 450 rpm and allowed to rest for 15 minutes. Viable cells were measured by luminescence using a microtiter plate reader. The data was plotted as % viability vs. concentration and standardized to untreated cells.

| Molecule | Growth inhibition of B16.F10 cells [2] | other results |
| --- | --- | --- |
| CC(=O)O[C@H]1C(=O)[C@@]2(C)[C@H]([C@H](OC(=O)c3ccccc3)[C@]3(O)C[C@H](OC(=O)[C@H](O)[C@@H](NC(=O)c4ccccc4)c4ccccc4)C(C)=C1C3(C)C)[C@]1(OC(C)=O)CO[C@@H]1C[C@@H]2O [Free paclitaxel, paclitaxel] |  | Day-17 TGI ([1]; 6 mg/kg IV days 5, 8, 12): 57%; Day-17 TGI ([1]; 6 mg/kg IV days 5, 8, 12, listed as free paclitaxel): 57%; Day-17 TGI ([1]; 15 mg/kg IV days 5, 8, 12): 83%; Day-17 TGI ([1]; 15 mg/kg IV days 5, 8, 12, listed as free paclitaxel): 83% |
| Bis(Docetaxel) Glutamate-5050 PLGA-O-Acetyl [Example 9] | inhibited the growth of B16.F10 cells in a dose and time dependent manner |  |
| Docetaxel-5050 PLGA-O-Acetyl [Example 8] | inhibited the growth of B16.F10 cells in a dose and time dependent manner |  |
| Doxorubicin 5050 PLGA Amide [Example 5] | inhibited the growth of B16.F10 cells in a dose and time dependent manner |  |
| Paclitaxel-5050 PLGA-O-Acetyl [Example 7] | inhibited the growth of B16.F10 cells in a dose and time dependent manner |  |
